Experimental findings from patent publication US6509369B2, “Anti-inflammatory compounds” (Ortho-McNeil Pharmaceutical, Inc., priority 1997, dated 2003) are described below.

The subject of the experiment is oxazolone-induced ear swelling (MOCH) in albino male CD-1 mice. The experiment in a line: mouse oxazolone-induced contact hypersensitization (MOCH) ear swelling. The experiment is classed as in vivo. Also on record: % Inhibition MOCH: concentration or dose not given beside the values. The note with it: mouse, in vivo. The procedure: Several triphenylpropanamide compounds of this invention, having varying affinities for the human glucocorticoid receptor, were tested for topical antiinflammatory activity in mouse ear inflammation models. […] Compounds having receptor affinities closer to hydrocortisone were as nearly active as hydrocortisone in suppressing mouse oxazolone-induced contact hypersensitization (MOCH) and phorbol ester-induced ear edema. The in vivo studies of this example were conducted as follows.
In determining the MOCH using the compounds of this invention, albino male CD-1 mice, 7-9 weeks old were induced on the shaved abdomen with 50 μl of 3% oxazolone in acetone/corn oil (Day 0). On Day 5, a 20 μl volume of 2% oxazolone in acetone was applied to the dorsal left ear of the mouse . Compounds (made in ethanol/propylene glycol, 70:30) were applied to the left ear in 20 μl volume, one hour after oxazolone challenge. The right ear was not treated. The mice were sacrificed by carbon dioxide inhalation 24 hours after oxazolone challenge, the left and right ears were removed and a 7 mm biopsy was removed from each ear and weighed. The difference in biopsy weights between the right and left ears was calculated. Antiinflammatory effects of compounds were evident as an inhibition of the increase in ear weight.
As to `COc1ccccc1CC(=O)NCC(c1ccc2c(c1)OCO2)C(c1ccccc1)c1ccccc1` (centres unmarked) [Compound 107], the “% Inhibition MOCH” value came out at 28%.

As to `COc1cc(CC(=O)NCC(c2ccc3c(c2)OCO3)C(c2ccccc2)c2ccccc2)cc(OC)c1` (centres unmarked) [Compound 108], the “% Inhibition MOCH” value is listed as 38%.

As to `O=C(Cc1ccccc1)NCC(c1ccc2c(c1)OCO2)C(c1ccccc1)c1ccccc1` (centres unmarked) [Compound 109], the “% Inhibition MOCH” value is 22%.

On to `O=C(Cc1cccc(F)c1)NCC(c1ccc2c(c1)OCO2)C(c1ccccc1)c1ccccc1` (centres unmarked) [Compound 110], for which the “% Inhibition MOCH” value is listed as 20%.

With `O=C(Cc1ccc(F)cc1F)NCC(c1ccc2c(c1)OCO2)C(c1ccccc1)c1ccccc1` (centres unmarked) [Compound 111], the “% Inhibition MOCH” value is recorded as 60%.

`O=C(Cc1ccc(Cl)cc1Cl)NCC(c1ccc2c(c1)OCO2)C(c1ccccc1)c1ccccc1` (centres unmarked) [Compound 112]: the “% Inhibition MOCH” value was found to be 36%.

On to `O=C(Cc1ccc(Cl)c(Cl)c1)NCC(c1ccc2c(c1)OCO2)C(c1ccccc1)c1ccccc1` (centres unmarked) [Compound 113], for which the “% Inhibition MOCH” value is reported as 31%.

In the case of `O=C(CSc1ccccc1)NCC(c1ccc2c(c1)OCO2)C(c1ccccc1)c1ccccc1` (centres unmarked) [Compound 114], the “% Inhibition MOCH” value is 41%.

In the case of `O=C(NCC(c1ccc2c(c1)OCO2)C(c1ccccc1)c1ccccc1)c1ccsc1` (centres unmarked) [Compound 115], the “% Inhibition MOCH” value was found to be 28%.

Regarding `O=C(NCC(c1ccc2c(c1)OCO2)C(c1ccccc1)c1ccccc1)c1cccs1` (centres unmarked) [Compound 116], the “% Inhibition MOCH” value amounted to 62%.

As to `O=C(NCC(c1ccc2c(c1)OCO2)C(c1ccccc1)c1ccccc1)c1ccccc1` (centres unmarked) [Compound 117], the “% Inhibition MOCH” value came to 28%.

In the case of `COc1ccccc1C(=O)NCC(c1ccc2c(c1)OCO2)C(c1ccccc1)c1ccccc1` (centres unmarked) [Compound 118], the “% Inhibition MOCH” value is recorded as 38%.

Turning to `O=C(NCC(c1ccc2c(c1)OCO2)C(c1ccccc1)c1ccccc1)c1cc2ccccc2[nH]1` (centres unmarked) [Compound 119], the “% Inhibition MOCH” value is on record as 31%.

With `O=C(NCC(c1ccc2c(c1)OCO2)C(c1ccccc1)c1ccccc1)c1cc(C(F)(F)F)cc(C(F)(F)F)c1` (centres unmarked) [Compound 120], the “% Inhibition MOCH” value is reported as 27%.

`O=C(NCC(c1ccc2c(c1)OCO2)C(c1ccccc1)c1ccccc1)c1cccc([N+](=O)[O-])c1` (centres unmarked) [Compound 121]: the “% Inhibition MOCH” value is reported as 10%.

Consider `Cc1ccc(C(=O)NCC(c2ccc3c(c2)OCO3)C(c2ccccc2)c2ccccc2)cc1[N+](=O)[O-]` (centres unmarked) [Compound 122], for which the “% Inhibition MOCH” value came to 33%.

For `N#Cc1cccc(C(=O)NCC(c2ccc3c(c2)OCO3)C(c2ccccc2)c2ccccc2)c1` (centres unmarked) [Compound 123], the “% Inhibition MOCH” value came to 51%.

As to `O=C(CCc1ccccc1)NCC(c1ccc2c(c1)OCO2)C(c1ccccc1)c1ccccc1` (centres unmarked) [Compound 124], the “% Inhibition MOCH” value was 35%.

With `CC(C)(C)c1ccc(C(=O)NCC(c2ccc3c(c2)OCO3)C(c2ccccc2)c2ccccc2)cc1` (centres unmarked) [Compound 125], the “% Inhibition MOCH” value stood at 31%.

On to `Cc1ccc(C(=O)NCC(c2ccc3c(c2)OCO3)C(c2ccccc2)c2ccccc2)cc1` (centres unmarked) [Compound 126], for which the “% Inhibition MOCH” value worked out at 46%.

With `O=C(NCC(c1ccc2c(c1)OCO2)C(c1ccccc1)c1ccccc1)c1ccc(F)cc1F` (centres unmarked) [Compound 127], the “% Inhibition MOCH” value turned out to be 61%.

With `O=C(NCC(c1ccc2c(c1)OCO2)C(c1ccccc1)c1ccccc1)c1ccc(F)cc1` (centres unmarked) [Compound 128], the “% Inhibition MOCH” value is on record as 54%.

With `O=C(NCC(c1ccc2c(c1)OCO2)C(c1ccccc1)c1ccccc1)c1ccccc1Cl` (centres unmarked) [Compound 129], the “% Inhibition MOCH” value stood at 41%.

`O=C(NCC(c1ccc2c(c1)OCO2)C(c1ccccc1)c1ccccc1)c1ccc(Cl)cc1` (centres unmarked) [Compound 130]: the “% Inhibition MOCH” value worked out at 37%.

In the case of `O=C(NCC(c1ccc2c(c1)OCO2)C(c1ccccc1)c1ccccc1)c1cc(Cl)cc(Cl)c1` (centres unmarked) [Compound 131], the “% Inhibition MOCH” value was determined as 18%.

Turning to `Cc1ccccc1C(=O)NCC(c1ccc2c(c1)OCO2)C(c1ccccc1)c1ccccc1` (centres unmarked) [Compound 133], the “% Inhibition MOCH” value is listed as 46%.
